Measured values taken from publication PMC12040169 (PLOS Biology, 2025).

experiment: in vitro; details: human, hela cells, % viability

Question: Which viability at 28.5 h, 10 µM does the source give for O=S(=O)(Nc1cc(NC2CCNC2)c2occc2c1)c1ccccc1 (centres unmarked) [CBK066943C] here?
Answer: 104%

Question: For CCN(CC)C(=O)[C@@H]1CCCN(C2CCN(C(=O)c3c4ccccc4cc4ccccc34)CC2)C1 [CBK066966C], which viability at 28.5 h, 10 µM is on record?
Answer: 90.4%

Question: With CCN(CC)C(=O)C1CCCN(C2CCN(C(=O)c3c4ccccc4cc4ccccc34)CC2)C1 (centres unmarked) [CBK066966] as the molecule, how does the viability at 28.5 h, 10 µM read?
Answer: 102%

Question: For CC(=O)N1CCc2c([nH]c3ccccc23)C1CNCc1ccc(F)cc1 (centres unmarked) [CBK066968], which viability at 28.5 h, 10 µM is on record?
Answer: 96.6%

Question: With Fc1ccc(OCCNCCC2NCCc3c2[nH]c2ccccc32)cc1 (centres unmarked) [CBK066970] as the molecule, how does the viability at 28.5 h, 10 µM read?
Answer: 97.6%

Question: For Cc1ccc(CCCC(=O)N2CCc3c([nH]c4c(C)cccc34)C23CCN(Cc2ccc(F)cc2)C3)cc1 (centres unmarked) [CBK066979], which viability at 28.5 h, 10 µM is on record?
Answer: 99.2%

Question: Which viability at 28.5 h, 10 µM does the source give for CCCN(CC1CC1)C(=O)CC1SC(NCC2CCCCC2)=NC1=O (centres unmarked) [CBK067014] here?
Answer: 104%

Question: With O=C1N=C(NCC2CCCCC2)OC1Cc1ccccc1 (centres unmarked) [CBK067023] as the molecule, how does the viability at 28.5 h, 10 µM read?
Answer: 94.1%

Question: With COc1ccc(Br)cc1C(=O)NCC1(c2ccccc2)CCOCC1 [CBK067051] as the molecule, how does the viability at 28.5 h, 10 µM read?
Answer: 82.7%

Question: For S=C(NCC1CCCCC1)Nc1ncc(Cl)cc1Cl [CBK067053], which viability at 28.5 h, 10 µM is on record?
Answer: 91%

Question: For CC(C)(C#N)C(C)(C)c1nnn[nH]1 [CBK067072], which viability at 28.5 h, 10 µM is on record?
Answer: 85.1%

Question: For CC1CCC(C(C)C)C(OC(=O)C(C)O)C1 (centres unmarked) [CBK067073], which viability at 28.5 h, 10 µM is on record?
Answer: 81.6%

Question: For COc1ccc([C@@]23CC[C@@H](NC(=O)Nc4nc(Cl)cc(Cl)n4)C[C@@H]2N(C)CC3)cc1OC [CBK067083T], which viability at 28.5 h, 10 µM is on record?
Answer: 96.3%

Question: For Clc1cnc2nc(NCC3CCCCC3)sc2c1 [CBK067087], which viability at 28.5 h, 10 µM is on record?
Answer: 87.5%

Question: With O=C1c2ccccc2C2(c3ccccc3)NCCN12 (centres unmarked) [CBK067098] as the molecule, how does the viability at 28.5 h, 10 µM read?
Answer: 101%

Question: With CC12CCC(=O)N1CCCN2 (centres unmarked) [CBK067102T] as the molecule, how does the viability at 28.5 h, 10 µM read?
Answer: 94.5%

Question: With O=S(=O)(Nc1cccc(-c2cnco2)c1)c1cccc2cccnc12 [CBK067104] as the molecule, how does the viability at 28.5 h, 10 µM read?
Answer: 81%

Question: Which viability at 28.5 h, 10 µM does the source give for O=S(=O)(Nc1cccc(-c2cnco2)c1)c1ccc(Cl)c(Cl)c1 [CBK067117] here?
Answer: 80.9%

Question: With CN1CCOc2cc(S(=O)(=O)Nc3cccc(-c4cnco4)c3)ccc21 [CBK067119] as the molecule, how does the viability at 28.5 h, 10 µM read?
Answer: 82.9%

Question: With O=C(O)c1cc(S(=O)(=O)Nc2cccc(-c3cnco3)c2)c(F)cc1Cl [CBK067126] as the molecule, how does the viability at 28.5 h, 10 µM read?
Answer: 90.5%

Question: Which viability at 28.5 h, 10 µM does the source give for Cc1c(S(=O)(=O)Nc2ccc3cn[nH]c3c2)cnn1-c1ccccc1 [CBK067149] here?
Answer: 92.4%

Question: Which viability at 28.5 h, 10 µM does the source give for O=S(=O)(Nc1ccc2cn[nH]c2c1)c1ccc(-c2ccon2)s1 [CBK067157] here?
Answer: 98.3%

Question: Which viability at 28.5 h, 10 µM does the source give for O=[N+]([O-])c1cc(S(=O)(=O)Nc2ccc3cn[nH]c3c2)ccc1Cl [CBK067160] here?
Answer: 91.1%

Question: With Cn1nc(-c2ccc(S(=O)(=O)n3cc(C#N)c(N)n3)s2)cc1C(F)(F)F [CBK067237] as the molecule, how does the viability at 28.5 h, 10 µM read?
Answer: 91.2%

Question: With Cc1cc(NS(=O)(=O)c2cccc(C(F)(F)F)c2)n(C)n1 [CBK067244] as the molecule, how does the viability at 28.5 h, 10 µM read?
Answer: 94.1%

Question: For Cc1cc(NS(=O)(=O)c2c(C)nn(C)c2Cl)n(C)n1 [CBK067245], which viability at 28.5 h, 10 µM is on record?
Answer: 99.9%

Question: With Cc1cc(NS(=O)(=O)c2cnn(-c3ccccc3)c2C)n(C)n1 [CBK067252] as the molecule, how does the viability at 28.5 h, 10 µM read?
Answer: 107%

Question: Which viability at 28.5 h, 10 µM does the source give for O=S(=O)(Nc1cccc(Cl)c1Cl)c1cccc2nsnc12 [CBK067296] here?
Answer: 86.3%

Question: Which viability at 28.5 h, 10 µM does the source give for Cc1nn(C)c(Cl)c1S(=O)(=O)NCCc1c[nH]c2ccccc12 [CBK067310] here?
Answer: 85.2%

Question: Which viability at 28.5 h, 10 µM does the source give for Cc1noc(C)c1S(=O)(=O)NCCc1c[nH]c2ccccc12 [CBK067311] here?
Answer: 101%

Question: With O=C1N=C(NC2CCCCCC2)SC1CC(=O)N1CCOC12CCCCC2 (centres unmarked) [CBK067355] as the molecule, how does the viability at 28.5 h, 10 µM read?
Answer: 94%

Question: Which viability at 28.5 h, 10 µM does the source give for Cc1cc(NS(=O)(=O)c2ccccc2Br)n(C)n1 [CBK067376] here?
Answer: 102%

Question: With CCCCN(C(=O)CC1SC(NC2CCCCCC2)=NC1=O)c1ccccc1 (centres unmarked) [CBK067392] as the molecule, how does the viability at 28.5 h, 10 µM read?
Answer: 92.4%

Question: Which viability at 28.5 h, 10 µM does the source give for O=C1N=C(NC2CCCCCC2)SC1CC(=O)N(Cc1ccccc1)c1ccccc1 (centres unmarked) [CBK067394] here?
Answer: 85.2%

same assay, conditions: human, hela cells, % viability, bulk resorufin, single well

Question: Which viability at 28.5 h, 10 µM does the source give for COc1ccc([C@]23CC[C@H](NC(=O)Nc4ccc(C#N)c(Cl)c4)C[C@H]2N(C)CC3)cc1OC [CBK066928T] here?
Answer: 94.9%
